Assay results reported in paper PMC10924921, “Mi-2β promotes immune evasion in melanoma by activating EZH2 methylation” (Nature Communications, 2024).

Tests used:
Assay in all cases: biochemical
Set-up in all cases: KINOMEscan active-site competition binding panel (468 kinase assays), per cent of control at 1000 nM
Conditions in all cases: KINOMEscan per cent of control (binding competition); read-out: Percent Control
[1] = biological target: PRKCE (Homo sapiens, UniProt Q02156)
Excerpt: (§1) Figure S7 / Percent Control

[2] = biological target: MET (Homo sapiens, UniProt P08581)
MET, sequence (P08581 whole entry): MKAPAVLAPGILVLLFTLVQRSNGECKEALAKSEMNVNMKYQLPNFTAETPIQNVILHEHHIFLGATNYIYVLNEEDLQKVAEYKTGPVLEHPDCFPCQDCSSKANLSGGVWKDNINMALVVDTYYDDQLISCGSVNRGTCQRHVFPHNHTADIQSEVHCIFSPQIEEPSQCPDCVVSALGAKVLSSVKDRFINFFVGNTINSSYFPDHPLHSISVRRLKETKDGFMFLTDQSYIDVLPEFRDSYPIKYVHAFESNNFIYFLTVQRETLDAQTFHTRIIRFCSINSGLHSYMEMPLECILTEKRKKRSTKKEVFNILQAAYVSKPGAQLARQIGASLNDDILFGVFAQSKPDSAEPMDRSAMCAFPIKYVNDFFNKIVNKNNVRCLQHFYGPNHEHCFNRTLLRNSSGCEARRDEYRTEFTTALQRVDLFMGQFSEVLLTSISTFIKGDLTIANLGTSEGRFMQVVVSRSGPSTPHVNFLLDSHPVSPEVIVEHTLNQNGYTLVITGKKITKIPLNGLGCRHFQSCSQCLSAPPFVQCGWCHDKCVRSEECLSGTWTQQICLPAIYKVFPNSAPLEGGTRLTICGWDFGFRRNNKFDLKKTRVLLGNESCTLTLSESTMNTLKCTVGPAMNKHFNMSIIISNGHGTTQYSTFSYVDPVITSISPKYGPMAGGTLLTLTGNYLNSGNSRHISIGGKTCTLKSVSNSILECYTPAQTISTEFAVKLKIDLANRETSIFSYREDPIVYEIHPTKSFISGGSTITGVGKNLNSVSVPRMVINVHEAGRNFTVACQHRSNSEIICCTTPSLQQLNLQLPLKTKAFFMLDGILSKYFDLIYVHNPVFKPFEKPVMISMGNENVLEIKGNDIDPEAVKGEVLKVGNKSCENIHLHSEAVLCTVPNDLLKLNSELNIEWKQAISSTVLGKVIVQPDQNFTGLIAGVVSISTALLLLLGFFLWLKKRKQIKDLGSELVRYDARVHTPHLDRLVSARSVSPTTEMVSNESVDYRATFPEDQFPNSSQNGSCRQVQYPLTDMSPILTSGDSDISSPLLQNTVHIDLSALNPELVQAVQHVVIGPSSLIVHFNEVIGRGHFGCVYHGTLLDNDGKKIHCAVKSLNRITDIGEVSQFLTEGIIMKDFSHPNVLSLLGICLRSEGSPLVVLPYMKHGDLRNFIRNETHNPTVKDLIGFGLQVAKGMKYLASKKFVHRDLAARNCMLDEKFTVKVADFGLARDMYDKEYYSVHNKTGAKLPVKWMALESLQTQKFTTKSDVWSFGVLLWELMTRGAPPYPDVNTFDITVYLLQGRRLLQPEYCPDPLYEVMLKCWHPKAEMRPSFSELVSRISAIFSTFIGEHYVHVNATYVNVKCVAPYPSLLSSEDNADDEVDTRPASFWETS
Excerpt: as §1

[3] = biological target: PDGFRA (Homo sapiens, UniProt P16234)
Excerpt: as §1

[4] = biological target: PLK1 (Homo sapiens, UniProt P53350)
Excerpt: as §1

[5] = biological target: PIK3CA(Q546K) (Homo sapiens, UniProt P42336, Q546K)
Excerpt: as §1

[6] = biological target: DYRK1A (Homo sapiens, UniProt Q13627)
Excerpt: as §1

[7] = biological target: T1, AMPK-alpha1 (Homo sapiens, UniProt Q13131)
T1 construct: gene PRKAA1
T1 sequence (Q13131 whole entry): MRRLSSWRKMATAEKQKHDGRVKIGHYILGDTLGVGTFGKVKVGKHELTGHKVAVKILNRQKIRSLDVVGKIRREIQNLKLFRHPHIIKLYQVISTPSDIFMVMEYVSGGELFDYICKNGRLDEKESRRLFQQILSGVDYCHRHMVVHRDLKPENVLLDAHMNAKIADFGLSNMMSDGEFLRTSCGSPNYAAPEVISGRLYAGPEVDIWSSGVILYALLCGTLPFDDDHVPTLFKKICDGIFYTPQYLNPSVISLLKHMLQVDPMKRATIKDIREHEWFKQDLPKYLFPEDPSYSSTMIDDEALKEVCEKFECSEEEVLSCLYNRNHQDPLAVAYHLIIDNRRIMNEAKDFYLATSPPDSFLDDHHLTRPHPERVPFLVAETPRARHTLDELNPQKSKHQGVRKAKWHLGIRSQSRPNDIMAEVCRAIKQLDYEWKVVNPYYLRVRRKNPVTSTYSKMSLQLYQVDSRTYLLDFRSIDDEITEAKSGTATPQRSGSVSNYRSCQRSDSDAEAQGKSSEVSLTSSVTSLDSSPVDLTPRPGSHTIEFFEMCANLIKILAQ
Excerpt: as §1

[8] = biological target: T2, ERK2 (Homo sapiens, UniProt P28482)
T2 construct: gene MAPK1
Excerpt: as §1

[9] = biological target: T3, PIK4CB (Homo sapiens, UniProt Q9UBF8)
T3 construct: gene PI4KB
Excerpt: as §1

[10] = biological target: T4, CTK (Homo sapiens, UniProt P42679)
T4 construct: gene MATK
Excerpt: as §1

[11] = biological target: T5, DCAMKL2 (Homo sapiens, UniProt Q8N568)
T5 construct: gene DCLK2
Excerpt: as §1

[12] = biological target: PKN1 (Homo sapiens, UniProt Q16512)
Excerpt: as §1

[13] = biological target: STK16 (Homo sapiens, UniProt O75716)
STK16, sequence (O75716 whole entry): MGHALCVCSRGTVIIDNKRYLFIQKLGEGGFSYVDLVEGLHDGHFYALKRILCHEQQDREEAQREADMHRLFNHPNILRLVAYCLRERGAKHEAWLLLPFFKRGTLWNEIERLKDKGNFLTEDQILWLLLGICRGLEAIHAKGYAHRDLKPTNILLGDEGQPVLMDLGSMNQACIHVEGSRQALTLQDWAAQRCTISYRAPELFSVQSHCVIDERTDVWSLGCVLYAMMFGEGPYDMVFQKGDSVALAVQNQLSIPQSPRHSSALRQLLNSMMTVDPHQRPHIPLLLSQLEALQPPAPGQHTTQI
Excerpt: as §1

[14] = biological target: T6, ERK8 (Homo sapiens, UniProt Q8TD08)
T6 construct: gene MAPK15
Excerpt: as §1

[15] = biological target: HUNK (Homo sapiens, UniProt P57058)
Excerpt: as §1

[16] = biological target: CAMKK1 (Homo sapiens, UniProt Q8N5S9)
Excerpt: as §1

[17] = biological target: T7, ARK5 (Homo sapiens, UniProt O60285)
T7 construct: gene NUAK1
T7 sequence (O60285 whole entry): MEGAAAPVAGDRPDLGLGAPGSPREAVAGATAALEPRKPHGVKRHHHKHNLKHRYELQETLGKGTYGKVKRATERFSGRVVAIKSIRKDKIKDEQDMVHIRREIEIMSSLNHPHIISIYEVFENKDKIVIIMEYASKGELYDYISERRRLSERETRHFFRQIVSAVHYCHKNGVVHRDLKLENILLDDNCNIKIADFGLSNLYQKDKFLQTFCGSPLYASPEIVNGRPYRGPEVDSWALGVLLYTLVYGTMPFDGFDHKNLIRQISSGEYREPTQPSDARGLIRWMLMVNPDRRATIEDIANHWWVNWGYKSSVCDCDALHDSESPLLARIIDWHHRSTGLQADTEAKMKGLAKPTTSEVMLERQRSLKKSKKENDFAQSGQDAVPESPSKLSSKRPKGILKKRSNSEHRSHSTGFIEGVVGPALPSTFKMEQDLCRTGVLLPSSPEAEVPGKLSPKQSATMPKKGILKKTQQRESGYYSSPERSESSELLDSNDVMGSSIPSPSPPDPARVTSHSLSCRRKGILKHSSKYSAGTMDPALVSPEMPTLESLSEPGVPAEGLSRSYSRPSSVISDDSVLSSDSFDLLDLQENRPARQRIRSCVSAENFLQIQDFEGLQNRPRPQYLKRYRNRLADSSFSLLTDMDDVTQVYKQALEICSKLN
Excerpt: as §1

[18] = biological target: T8, SGK (Homo sapiens, UniProt O00141)
T8 construct: gene SGK1
T8 sequence (O00141 whole entry): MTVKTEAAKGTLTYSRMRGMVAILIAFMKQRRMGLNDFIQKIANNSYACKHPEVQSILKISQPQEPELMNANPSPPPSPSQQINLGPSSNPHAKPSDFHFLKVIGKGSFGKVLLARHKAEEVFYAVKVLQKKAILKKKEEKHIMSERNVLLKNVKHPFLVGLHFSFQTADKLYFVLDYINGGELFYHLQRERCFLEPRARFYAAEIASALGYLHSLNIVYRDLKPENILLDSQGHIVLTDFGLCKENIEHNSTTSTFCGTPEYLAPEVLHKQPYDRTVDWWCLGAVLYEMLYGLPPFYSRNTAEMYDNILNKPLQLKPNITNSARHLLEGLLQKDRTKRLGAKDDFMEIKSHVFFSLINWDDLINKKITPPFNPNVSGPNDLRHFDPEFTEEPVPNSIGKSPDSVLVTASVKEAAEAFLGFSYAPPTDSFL
Excerpt: as §1

[19] = biological target: PIK3CG (Homo sapiens, UniProt P48736)
PIK3CG, sequence (P48736 whole entry): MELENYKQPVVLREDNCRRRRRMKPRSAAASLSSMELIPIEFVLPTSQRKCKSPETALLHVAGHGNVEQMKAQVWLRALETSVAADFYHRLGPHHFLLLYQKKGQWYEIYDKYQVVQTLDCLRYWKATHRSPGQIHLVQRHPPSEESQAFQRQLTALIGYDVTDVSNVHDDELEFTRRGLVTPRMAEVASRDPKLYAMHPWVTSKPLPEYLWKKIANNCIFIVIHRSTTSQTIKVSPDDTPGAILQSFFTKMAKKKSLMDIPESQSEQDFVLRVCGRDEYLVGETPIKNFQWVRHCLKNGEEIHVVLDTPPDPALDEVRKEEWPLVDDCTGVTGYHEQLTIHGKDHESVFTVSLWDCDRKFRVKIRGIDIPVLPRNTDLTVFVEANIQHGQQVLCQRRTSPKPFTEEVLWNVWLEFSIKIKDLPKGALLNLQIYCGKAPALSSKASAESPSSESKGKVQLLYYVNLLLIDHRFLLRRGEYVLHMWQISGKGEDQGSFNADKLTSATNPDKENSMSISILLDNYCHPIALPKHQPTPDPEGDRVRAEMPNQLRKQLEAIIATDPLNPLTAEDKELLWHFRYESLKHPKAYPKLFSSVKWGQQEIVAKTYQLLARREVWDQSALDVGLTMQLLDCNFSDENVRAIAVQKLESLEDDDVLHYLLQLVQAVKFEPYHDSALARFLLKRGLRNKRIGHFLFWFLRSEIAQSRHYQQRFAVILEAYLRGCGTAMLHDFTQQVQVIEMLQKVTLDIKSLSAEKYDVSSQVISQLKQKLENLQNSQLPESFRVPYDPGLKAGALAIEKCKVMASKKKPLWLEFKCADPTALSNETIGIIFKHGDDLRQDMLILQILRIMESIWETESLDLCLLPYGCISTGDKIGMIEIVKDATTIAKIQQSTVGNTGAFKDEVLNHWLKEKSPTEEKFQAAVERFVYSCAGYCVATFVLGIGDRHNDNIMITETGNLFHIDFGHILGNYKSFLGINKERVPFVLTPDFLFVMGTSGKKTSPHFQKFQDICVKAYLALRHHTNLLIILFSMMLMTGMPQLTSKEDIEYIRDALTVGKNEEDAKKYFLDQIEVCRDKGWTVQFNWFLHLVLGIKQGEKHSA
Excerpt: as §1

[20] = biological target: FLT3(ITD,D835V) (Homo sapiens, UniProt P36888, D835V/ITD)
Excerpt: as §1

[21] = biological target: RAF1 (Homo sapiens, UniProt P04049)
Excerpt: as §1

[22] = biological target: T9, PRKR (Homo sapiens, UniProt P19525)
T9 construct: gene EIF2AK2
T9 sequence (P19525 whole entry): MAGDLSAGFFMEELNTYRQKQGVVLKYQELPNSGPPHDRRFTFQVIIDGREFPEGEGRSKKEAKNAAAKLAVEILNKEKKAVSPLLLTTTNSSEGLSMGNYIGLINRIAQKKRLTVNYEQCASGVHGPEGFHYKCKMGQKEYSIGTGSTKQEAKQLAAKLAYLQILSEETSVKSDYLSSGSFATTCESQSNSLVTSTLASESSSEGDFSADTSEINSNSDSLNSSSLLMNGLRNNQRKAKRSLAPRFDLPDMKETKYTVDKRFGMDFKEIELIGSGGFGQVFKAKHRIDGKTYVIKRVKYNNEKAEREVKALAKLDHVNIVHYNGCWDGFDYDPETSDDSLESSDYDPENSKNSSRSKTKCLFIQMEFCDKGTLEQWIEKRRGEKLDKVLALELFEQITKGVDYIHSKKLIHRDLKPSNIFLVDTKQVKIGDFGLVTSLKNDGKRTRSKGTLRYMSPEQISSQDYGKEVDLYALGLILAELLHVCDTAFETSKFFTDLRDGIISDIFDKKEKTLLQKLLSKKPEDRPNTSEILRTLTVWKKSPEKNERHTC
Excerpt: as §1

[23] = biological target: AKT2 (Homo sapiens, UniProt P31751)
Excerpt: as §1

[24] = biological target: MAPKAPK5 (Homo sapiens, UniProt Q8IW41)
Excerpt: as §1

[25] = biological target: TAOK1 (Homo sapiens, UniProt Q7L7X3)
Excerpt: as §1

Question: For Cn1c(=O)[nH]c2ccc(-c3cccc(C(=O)NC4CCn5ccnc5C4)c3)cc21 (stereo not shown) [Z36-MP5], which remaining binding at 1 µM [1] is on record?
Answer: The remaining binding at 1 µM was 100%.

Question: What about the remaining binding at 1 µM [2] of the same compound?
Answer: The remaining binding at 1 µM was 96%.

Question: What about the remaining binding at 1 µM [3] of the same compound?
Answer: Its remaining binding at 1 µM is 75%.

Question: And the remaining binding at 1 µM [4]?
Answer: Its remaining binding at 1 µM is 70%.

Question: And the remaining binding at 1 µM [5]?
Answer: The remaining binding at 1 µM was 54%.

Question: What about the remaining binding at 1 µM [6] of the same compound?
Answer: The remaining binding at 1 µM was 60%.

Question: What about the remaining binding at 1 µM [7] of the same compound?
Answer: Its remaining binding at 1 µM is 92%.

Question: What about the remaining binding at 1 µM [8] of the same compound?
Answer: Its remaining binding at 1 µM is 81%.

Question: And the remaining binding at 1 µM [9]?
Answer: The remaining binding at 1 µM was 100%.

Question: What about the remaining binding at 1 µM [10] of the same compound?
Answer: The remaining binding at 1 µM was 61%.

Question: And the remaining binding at 1 µM [11]?
Answer: The remaining binding at 1 µM was 90%.

Question: What about the remaining binding at 1 µM [12] of the same compound?
Answer: The remaining binding at 1 µM was 99%.

Question: What about the remaining binding at 1 µM [13] of the same compound?
Answer: Its remaining binding at 1 µM is 31%.

Question: What about the remaining binding at 1 µM [14] of the same compound?
Answer: The remaining binding at 1 µM was 83%.

Question: And the remaining binding at 1 µM [15]?
Answer: The remaining binding at 1 µM was 74%.

Question: And the remaining binding at 1 µM [16]?
Answer: The remaining binding at 1 µM was 39%.

Question: And the remaining binding at 1 µM [17]?
Answer: Its remaining binding at 1 µM is 98%.

Question: And the remaining binding at 1 µM [18]?
Answer: The remaining binding at 1 µM was 68%.

Question: And the remaining binding at 1 µM [19]?
Answer: The remaining binding at 1 µM was 83%.

Question: What about the remaining binding at 1 µM [20] of the same compound?
Answer: The remaining binding at 1 µM was 56%.

Question: What about the remaining binding at 1 µM [21] of the same compound?
Answer: The remaining binding at 1 µM was 83%.

Question: What about the remaining binding at 1 µM [22] of the same compound?
Answer: The remaining binding at 1 µM was 99%.

Question: What about the remaining binding at 1 µM [23] of the same compound?
Answer: The remaining binding at 1 µM was 89%.

Question: And the remaining binding at 1 µM [24]?
Answer: The remaining binding at 1 µM was 63%.

Question: And the remaining binding at 1 µM [25]?
Answer: Its remaining binding at 1 µM is 100%.
